Results reported in patent US7612081B2 (priority 2003, dated 2009).
Read-outs that look alike come from different tables or passages of the source.

Tests used:
[1] = test system: NCl—H460 non-microcytoma lung cancer cells; experiment: Cytotoxic activity on NCl—H460 cells (sulforodamine B); conditions: for IC50: read-out: IC50 (product concentration that inhibits cell survival by 50%), 2 hours exposure, 72 hours recovery, mean ± SD
Procedure: NCl—H460 non-microcytoma lung cancer cells were kept in RPMI 1640 culture medium containing 10% FCS and 1% glutamine. The cytotoxicity test to analyse the activity of the molecules was performed as follows. The cells were seeded in a volume of 250 μl in 96-well plates and incubated for 2 hours at 37° C. with scalar concentrations of the products in a humidified atmosphere containing 5% CO2. At the end of the incubation, the molecules were removed by overturning the plates and adding sterile buffered saline solution (PBS) three times. The RPMI 1640 culture medium containing 10% FCS (200 μl) was added to the wells and the plates were incubated for another 72 hours. At the end of the incubation, the plates were overturned again and dried on paper, before adding 200 μl of PBS and 50 μl of 80% TCA. The plates were incubated again in ice for at least 1 hour. The TCA was removed by overturning the plates and the plates were first dried on paper and then washed three times by immersion in distilled water and overturning. The plates were dried first on paper and then in a thermostatically regulated incubator at 60° C. for 10 min. 200 μl of 0.4% sulforodamine B in 1% acetic acid were added to all wells. The plates were incubated at room temperature for another 30 min. The sulforodamine B was removed by overturning, the plates were washed by immersion in 1% acetic acid three times and then dried first on blotting paper and then in the thermostat at 60° C. for 10 min. Lastly, 200 μl of Tris base 10 mM were added to all wells and the plates were subjected to stirring for at least 20 min. The optical density was measured with a Multiskan spectrophotometer at 540 nm.

[2] = test system: Saccharomyces cerevisiae yeast strain EKY3 (top1Δ), Topoisomerase I wild-type (TOP1); experiment: Yeast in-vivo spot test, wild-type TOP1; type: cell-based; conditions: 45 μM
Procedure: One day before the transformation, a single yeast colony sample was taken with a sterile Gilson tip and inoculated in 5 ml of sterile liquid YPDA medium (the above-mentioned medium without agar). The colony was grown overnight under stirring at 30° C. […]

[3] = test system: Saccharomyces cerevisiae yeast strain EKY3 (top1Δ), YCpGAL-1hTOP1A653P; experiment: Yeast in-vivo spot test, A653P mutant; type: cell-based; conditions: 45 μM
Description: (§1) To identify camptothecin derivatives that overcome the resistance to camptothecin induced by point mutations on topisomerase I DNA in the Saccharomyces cerevisiae yeast model, an in-vivo and an in-vitro system were used in parallel.
(§2) A number of mutations are present close to the active site of the enzyme (tyrosine 723) and others around position 363 which corresponds to a very well conserved region.
(§3) Before effecting the transformation of the yeasts, the yeasts were unfrozen and plated with a sterile bent glass rod in 90-mm plates containing sterile solid YPDa medium (10 g of yeast extract, 20 g of peptone, 20 g of dextrose, 0.7 g of adenine, 20 g of glucose, 20 g of agar per liter). Colonies formed after 48-72 hours in an incubator at 30° C.
(§4) One day before the transformation, a single yeast colony sample was taken with a sterile Gilson tip and inoculated in 5 ml of sterile liquid YPDA medium (the above-mentioned medium without agar). […]
(§5) Before treating the yeasts with the camptothecin derivatives (in-vivo spot test), the transformed colonies were inoculated with a Gilson tip in 5 ml sterile liquid CM medium. […] On the day after, the optical density of the colonies was measured at 600 nm and a dilution of the colonies was performed in order to obtain an optical density of 0.3. […] The colonies were incubated at 30° C. for 48-72 hours and analysed macroscopically.

[4] = test system: MKN-28 human gastric carcinoma; conditions: for LCK (1000 mm^3) (log cell kill): q4dx4; for TVI % (tumor volume inhibition): q4dx4, 20 days after last treatment
Procedure: Tumor fragments were inoculated on both flanks at day 0. Treatment started when tumors were just palpable. The molecule was given by oral route and intravenously according to the schedule q4d×4. During the treatment, animals were inspected every day for mortality. Physical appearance, behavior and general and local clinical signs of the mice will be observed daily. Any deviation from normality was recorded. All animals were weighed during the whole treatment period, in order to calculate the percent body weight loss due to the treatment.
Tumor volume inhibition % in treated over control tumors was evaluated 20 days after last treatment. To determine the antitumor activity of the drug, tumor diameters was measured biweekly with a Vernier caliper. The formula TV (mm^3)=[length (mm)×width (mm)^2]/2 was used, where the width and the length are the shortest and the longest diameters of each tumor, respectively.
When tumors reached a weight of about 2 g, the mice were sacrificed by cervical dislocation. LCK (log cell kill) as index of efficacy was calculated to evaluate the persistence of the effect of the molecule at the end of the treatment.

[5] = test system: Saccharomyces cerevisiae yeast strain EKY3 (top1Δ), YCpGAL1-hTOP1K720E; experiment: Yeast in-vivo spot test, K720E mutant; type: cell-based; conditions: 45 μM
Description: as §1, §2, §3, §4, §5

[6] = test system: Saccharomyces cerevisiae yeast strain EKY3 (top1Δ), YCpGAL1-hTOP1G363C; experiment: Yeast in-vivo spot test, G363C mutant; type: cell-based; conditions: 45 μM
Description: as §1, §2, §3, §4, §5

How did the IC50 [1] turn out when CCC1(O)C(=O)OCc2c1cc1n(c2=O)Cc2c-1nc1ccccc1c2C=NOCCCN(CCCCNC(=O)OC(C)(C)C)C(=O)OC(C)(C)C (centres unmarked) [ST2872] was run?
The IC50 was greater than 200 nM.

Which “Phenotype of Topoisomerase I wild-type towards the derivative” value [2] does the source give for “7-[(N′,N″,N′″-tert-butoxycarbonyl)-spermine-imino-methyl]-20S-camptothecin [ST2544]” here?
The value was “sensitivity”.

And the “Phenotype of mutated enzyme A653P towards the derivative” value [3]?
Its value is “resistant”.

What about the “LCK (1000 mm^3) (log cell kill)” value ([4]; iv, 1 mg/kg) of the same compound?
The value was 0.2.

And the “TVI % (tumor volume inhibition)” value ([4]; iv, 1 mg/kg)?
The value was 34%.

And the “LCK (1000 mm^3) (log cell kill)” value ([4]; iv, 2 mg/kg)?
The value was 0.2.

And the “TVI % (tumor volume inhibition)” value ([4]; iv, 2 mg/kg)?
The value was 36%.

What about the “LCK (1000 mm^3) (log cell kill)” value ([4]; iv, 4 mg/kg) of the same compound?
The value was 0.8.

And the “TVI % (tumor volume inhibition)” value ([4]; iv, 4 mg/kg)?
The value was 66%.

What about the “LCK (1000 mm^3) (log cell kill)” value ([4]; p.o., 1 mg/kg) of the same compound?
The value was 0.1.

What about the “TVI % (tumor volume inhibition)” value ([4]; p.o., 1 mg/kg) of the same compound?
The value was 28%.

And the “LCK (1000 mm^3) (log cell kill)” value ([4]; p.o., 2 mg/kg)?
Its value is 0.5.

And the “TVI % (tumor volume inhibition)” value ([4]; p.o., 2 mg/kg, 2 mg/kg)?
Its value is 62%.

What about the “TVI % (tumor volume inhibition)” value ([4]; p.o., 4 mg/kg, 4 mg/kg) of the same compound?
Its value is 72%.

What about the “Phenotype of K720E mutant towards the derivative” value [5] of the same compound?
The value was “sensitivity”.

And the “Phenotype of mutated enzyme G363C towards the derivative” value [6]?
Its value is “resistant”.

And the IC50 [1]?
The IC50 was 12.9 ± 1.8 nM.

With CCC1(O)C(=O)OCc2c1cc1n(c2=O)Cc2c-1nc1ccccc1c2C=NOCCCNC(=O)OC(C)(C)C (stereo not drawn) [ST2664, 7-[3-(N-tert-butoxycarbonyl)-amino-1-propoxyiminomethyl]20S-camptothecin] as the compound, how does the IC50 [1] read?
Its IC50 is greater than 200 nM.

For “7-[N-(N′-tert-butoxcarbonyl)-putrescinimino-methyl]-20S-camptothecin [ST2615]”, which IC50 [1] is on record?
Its IC50 is greater than 200 nM.

How did the “Phenotype of Topoisomerase I wild-type towards the derivative” value [2] turn out when “7-[(N′, N″-tert-butoxycarbonyl)-spermidine-imino-methyl]-20S-camptothecin [ST2598]” was run?
Its value is “sensitivity”.

What about the “Phenotype of mutated enzyme A653P towards the derivative” value [3] of the same compound?
Its value is “resistant”.

And the “Phenotype of mutated enzyme G363C towards the derivative” value [6]?
The value was “resistant”.

What about the “Cytotoxicity on the lung cancer line (in words)” value [1] of the same compound?
Its value is “very potent cytotoxicity”.

And the IC50 [1]?
The IC50 was 15 ± 2 nM.

With “7-[(N′,N″-Di-benzyloxycarbonyl)-spermidineiminomethyl]-20S-camptothecin [ST2729]” as the compound, how does the IC50 [1] read?
Its IC50 is 34 ± 7 nM.

CC[C@@]1(O)C(=O)OCc2c1cc1n(c2=O)Cc2c-1nc1ccccc1c2C=NCC1CCN(C(=O)OC(C)(C)C)CC1 [ST2665] was tested. Which IC50 [1] did it give?
Its IC50 is greater than 200 nM.
